Laboratory results as given in the supplement of paper PMC10307832.

Assays:
Test in all cases: relative viability (nuclei count vs DMSO), 5 days (fraction); higher = more cells survive
A-427 = tested on: A-427
Outline: (§1)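 Values are medians from duplicate plates. Each reflects relative viability, defined as the nuclei count of treated wells over that of vehicle wells. Lung cancer cell lines in 1536-well plates were pin-tool dosed one day after seeding with one drug alone or with a fixed anchor-drug dose plus five library-drug doses (not always all listed) in √10 steps, then fixed, stained and imaged at 4× after 5 days.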

ABC-1 = tested on: ABC-1
Outline: as §1

COR-L23 = tested on: COR-L23
Outline: as §1

ChaGo-K-1 = tested on: ChaGo-K-1
Outline: as §1

EMC-BAC-2 = tested on: EMC-BAC-2
Outline: as §1

HARA = tested on: HARA
Outline: as §1

HCC-15 = tested on: HCC-15
Outline: as §1

HCC-366 = tested on: HCC-366
Outline: as §1

HCC-78 = tested on: HCC-78
Outline: as §1

LC-2-ad = tested on: LC-2-ad
Outline: as §1

NCI-H1734 = tested on: NCI-H1734
Outline: as §1

NCI-H1993 = tested on: NCI-H1993
Outline: as §1

NCI-H2009 = tested on: NCI-H2009
Outline: as §1

NCI-H2023 = tested on: NCI-H2023
Outline: as §1

NCI-H2126 = tested on: NCI-H2126
Outline: as §1

NCI-H2228 = tested on: NCI-H2228
Outline: as §1

NCI-H23 = tested on: NCI-H23
Outline: as §1

NCI-H2405 = tested on: NCI-H2405
Outline: as §1

NCI-H838 = tested on: NCI-H838
Outline: as §1

SK-LU-1 = tested on: SK-LU-1
Outline: as §1

UMC-11 = tested on: UMC-11
Outline: as §1

Compound: NC(=O)Nc1cc(-c2cccc(F)c2)sc1C(=O)N[C@H]1CCCNC1 [AZD7762] + CC(C)C[C@H](NC(=O)[C@H](Cc1ccccc1)NC(=O)c1cnccn1)B(O)O [Bortezomib] (partner 0.002 µM)
- relative viability (A-427; first compound 0.01 µM): 0.988
- relative viability (A-427; first compound 0.03162 µM): 0.965
- relative viability (A-427; first compound 0.1 µM): 0.989
- relative viability (A-427; first compound 0.3162 µM): 1.04
- relative viability (A-427; first compound 1 µM): 0.272
- relative viability (ABC-1; first compound 0.01 µM): 0.276
- relative viability (ABC-1; first compound 0.03162 µM): 0.389
- relative viability (ABC-1; first compound 0.1 µM): 0.3
- relative viability (ABC-1; first compound 0.3162 µM): 0.26
- relative viability (ABC-1; first compound 1 µM): 0.202
- relative viability (COR-L23; first compound 0.01 µM): 1.12
- relative viability (COR-L23; first compound 0.03162 µM): 0.981
- relative viability (COR-L23; first compound 0.1 µM): 0.985
- relative viability (COR-L23; first compound 0.3162 µM): 0.905
- relative viability (COR-L23; first compound 1 µM): 0.229
- relative viability (ChaGo-K-1; first compound 0.01 µM): 0.861
- relative viability (ChaGo-K-1; first compound 0.03162 µM): 1.01
- relative viability (ChaGo-K-1; first compound 0.1 µM): 0.961
- relative viability (ChaGo-K-1; first compound 0.3162 µM): 0.958
- relative viability (ChaGo-K-1; first compound 1 µM): 0.865
- relative viability (EMC-BAC-2; first compound 0.01 µM): 1.12
- relative viability (EMC-BAC-2; first compound 0.03162 µM): 1.08
- relative viability (EMC-BAC-2; first compound 0.1 µM): 1.09
- relative viability (EMC-BAC-2; first compound 0.3162 µM): 1.15
- relative viability (EMC-BAC-2; first compound 1 µM): 1.12
- relative viability (HARA; first compound 0.01 µM): 1.08
- relative viability (HARA; first compound 0.03162 µM): 1.11
- relative viability (HARA; first compound 0.1 µM): 1.14
- relative viability (HARA; first compound 0.3162 µM): 1.13
- relative viability (HARA; first compound 1 µM): 0.42
- relative viability (HCC-15; first compound 0.01 µM): 1.01
- relative viability (HCC-15; first compound 0.03162 µM): 0.95
- relative viability (HCC-15; first compound 0.1 µM): 0.898
- relative viability (HCC-15; first compound 0.3162 µM): 0.937
- relative viability (HCC-15; first compound 1 µM): 0.986
- relative viability (HCC-366; first compound 0.01 µM): 1.1
- relative viability (HCC-366; first compound 0.03162 µM): 1.04
- relative viability (HCC-366; first compound 0.1 µM): 1.03
- relative viability (HCC-366; first compound 0.3162 µM): 0.62
- relative viability (HCC-366; first compound 1 µM): 0.0941
- relative viability (HCC-78; first compound 0.01 µM): 0.561
- relative viability (HCC-78; first compound 0.03162 µM): 0.528
- relative viability (HCC-78; first compound 0.1 µM): 0.526
- relative viability (HCC-78; first compound 0.3162 µM): 0.62
- relative viability (HCC-78; first compound 1 µM): 0.391
- relative viability (LC-2-ad; first compound 0.01 µM): 1.04
- relative viability (LC-2-ad; first compound 0.03162 µM): 1.14
- relative viability (LC-2-ad; first compound 0.1 µM): 0.975
- relative viability (LC-2-ad; first compound 0.3162 µM): 0.909
- relative viability (LC-2-ad; first compound 1 µM): 0.732
- relative viability (NCI-H1734; first compound 0.01 µM): 0.912
- relative viability (NCI-H1734; first compound 0.03162 µM): 1.04
- relative viability (NCI-H1734; first compound 0.1 µM): 0.963
- relative viability (NCI-H1734; first compound 0.3162 µM): 0.821
- relative viability (NCI-H1734; first compound 1 µM): 0.527
- relative viability (NCI-H1993; first compound 0.01 µM): 1.2
- relative viability (NCI-H1993; first compound 0.03162 µM): 1.08
- relative viability (NCI-H1993; first compound 0.1 µM): 1.07
- relative viability (NCI-H1993; first compound 0.3162 µM): 1.36
- relative viability (NCI-H1993; first compound 1 µM): 0.841
- relative viability (NCI-H2009; first compound 0.01 µM): 0.904
- relative viability (NCI-H2009; first compound 0.03162 µM): 1.13
- relative viability (NCI-H2009; first compound 0.1 µM): 1.08
- relative viability (NCI-H2009; first compound 0.3162 µM): 0.839
- relative viability (NCI-H2009; first compound 1 µM): 0.794
- relative viability (NCI-H2023; first compound 0.01 µM): 0.82
- relative viability (NCI-H2023; first compound 0.03162 µM): 0.904
- relative viability (NCI-H2023; first compound 0.1 µM): 0.465
- relative viability (NCI-H2023; first compound 0.3162 µM): 0.283
- relative viability (NCI-H2023; first compound 1 µM): 0.104
- relative viability (NCI-H2126; first compound 0.01 µM): 1.06
- relative viability (NCI-H2126; first compound 0.03162 µM): 1.11
- relative viability (NCI-H2126; first compound 0.1 µM): 1.18
- relative viability (NCI-H2126; first compound 0.3162 µM): 1.2
- relative viability (NCI-H2126; first compound 1 µM): 1.07
- relative viability (NCI-H2228; first compound 0.01 µM): 1.04
- relative viability (NCI-H2228; first compound 0.03162 µM): 1.33
- relative viability (NCI-H2228; first compound 0.1 µM): 1.03
- relative viability (NCI-H2228; first compound 0.3162 µM): 0.723
- relative viability (NCI-H2228; first compound 1 µM): 0.389
- relative viability (NCI-H23; first compound 0.01 µM): 1.26
- relative viability (NCI-H23; first compound 0.03162 µM): 0.986
- relative viability (NCI-H23; first compound 0.1 µM): 0.742
- relative viability (NCI-H23; first compound 0.3162 µM): 0.597
- relative viability (NCI-H23; first compound 1 µM): 0.284
- relative viability (NCI-H2405; first compound 0.01 µM): 0.933
- relative viability (NCI-H2405; first compound 0.03162 µM): 0.982
- relative viability (NCI-H2405; first compound 0.1 µM): 0.963
- relative viability (NCI-H2405; first compound 0.3162 µM): 0.943
- relative viability (NCI-H2405; first compound 1 µM): 0.796
- relative viability (NCI-H838; first compound 0.01 µM): 0.773
- relative viability (NCI-H838; first compound 0.03162 µM): 0.814
- relative viability (NCI-H838; first compound 0.1 µM): 0.715
- relative viability (NCI-H838; first compound 0.3162 µM): 0.724
- relative viability (NCI-H838; first compound 1 µM): 0.303
- relative viability (SK-LU-1; first compound 0.01 µM): 1.34
- relative viability (SK-LU-1; first compound 0.03162 µM): 1.05
- relative viability (SK-LU-1; first compound 0.1 µM): 0.853
- relative viability (SK-LU-1; first compound 0.3162 µM): 0.36
- relative viability (SK-LU-1; first compound 1 µM): 0.269
- relative viability (UMC-11; first compound 0.01 µM): 0.692
- relative viability (UMC-11; first compound 0.03162 µM): 0.585
- relative viability (UMC-11; first compound 0.1 µM): 0.409
- relative viability (UMC-11; first compound 0.3162 µM): 0.632
- relative viability (UMC-11; first compound 1 µM): 0.435
